pEC50: −log10 of the molar value. Where two headings read alike, the source gives them in different places.
What was measured:
Type in all cases: cell-based
[1] = target: T1, mouse PPAR δ (Mus musculus, UniProt P35396); assay: PPAR δ transactivation (GAL4 chimeric receptor luciferase reporter) assay; conditions: GAL4-mPPAR δ chimeric receptor, pFR-Luc reporter, HEK293T cells, 20 hours incubation
T1 construct: expressed in transfected cells; host or cells: HEK293T
T1 sequence (P35396 210-438 limits assumed): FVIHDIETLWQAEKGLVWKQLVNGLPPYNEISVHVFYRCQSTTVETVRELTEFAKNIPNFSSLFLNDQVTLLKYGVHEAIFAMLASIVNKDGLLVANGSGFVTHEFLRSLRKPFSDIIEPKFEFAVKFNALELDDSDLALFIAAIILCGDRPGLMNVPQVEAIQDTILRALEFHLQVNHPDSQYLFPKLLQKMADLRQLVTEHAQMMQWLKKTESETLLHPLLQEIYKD
Description: (§1) Chimeric receptors were constructed in which the yeast transcription factor GAL4 DNA binding domain was fused to the ligand binding domain of either mouse PPARγ, mouse PPAR δ or mouse PPAR α in order to assess the ability of the compounds of the present invention to activate gene expression in a PPAR-dependent manner. The chimeric receptor expression plasmids (GAL4-mPPARγ, GAL4-mPPAR δ and GAL4-PPAR α) and the reporter plasmid containing 5×GAL4 binding site (pFR-Luc, obtained from Stratagene) were transfected into HEK293T cells using the Lipofectamine 2000 reagent (Invitrogen), according to the manufacturers instructions. Six hours after transfection, the culture medium was renewed and the cells were incubated for 20 hours in presence of either 1) DMSO (vehicle), 2) a compound of the invention or 3) a reference compound for comparison. Rosiglitazone (obtained from WDF Pharma) was used as a reference compound for the PPARγ assay; GW501516 (prepared as described in Sznaidman et al. Bioorg. Med. Chem. Lett. (2003) 13:1517-1521) was used as a reference compound for the PPAR δ assay and GW7647 (obtained from Sigma) was used as a reference compound for the PPAR α assay. Luciferase activity was measured as a reporter of gene expression. Luciferase activity on the cell lysates using the Steady-Glo reagent was measured according to the manufacturers instructions.

[2] = target: T2, mouse PPAR α (Mus musculus, UniProt P23204); assay: PPAR α transactivation (GAL4 chimeric receptor luciferase reporter) assay
T2 construct: expressed in transfected cells; host or cells: HEK293T
T2 sequence (P23204 239-466 limits assumed): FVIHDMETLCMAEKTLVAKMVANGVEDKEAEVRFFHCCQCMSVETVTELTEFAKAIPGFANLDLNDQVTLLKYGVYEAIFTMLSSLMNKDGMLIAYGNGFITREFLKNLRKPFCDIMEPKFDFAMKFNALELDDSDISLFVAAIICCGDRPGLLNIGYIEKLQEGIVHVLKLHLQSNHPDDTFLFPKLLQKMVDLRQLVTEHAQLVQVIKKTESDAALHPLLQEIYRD
Description: as §1

[3] = target: T3, mouse PPARγ (Mus musculus, UniProt P37238); assay: PPARγ transactivation (GAL4 chimeric receptor luciferase reporter) assay; conditions: GAL4-mPPARγ chimeric receptor, pFR-Luc reporter, HEK293T cells, 20 hours incubation
T3 construct: expressed in transfected cells; host or cells: HEK293T
T3 sequence (P37238 238-503 limits assumed): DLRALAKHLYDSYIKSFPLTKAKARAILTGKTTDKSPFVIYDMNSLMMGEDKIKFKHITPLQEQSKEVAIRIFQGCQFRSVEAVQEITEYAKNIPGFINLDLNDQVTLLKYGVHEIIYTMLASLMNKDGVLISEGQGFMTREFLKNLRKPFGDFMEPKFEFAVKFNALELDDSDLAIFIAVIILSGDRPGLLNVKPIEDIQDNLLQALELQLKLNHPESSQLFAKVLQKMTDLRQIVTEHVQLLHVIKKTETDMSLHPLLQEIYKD
Description: as §1

[4] = read-out: Gene Activation Assay: EC50 (≦10 μM) PPAR alpha, pFR-Luc reporter, HEK293T cells, 20 hours incubation
[5] = pFR-Luc reporter, HEK293T cells, 20 hours incubation

Compound | pEC50 [1] | pEC50 [2, 4] | pEC50 [3] | pEC50 [2, 5]
Cc1cc(SCCOc2ccc(Cl)cc2-n2nc3ccccc3n2)ccc1OCC(=O)O [Compound 400, {4-[2-(2-Benzotriazol-2-yl-4-chloro-phenoxy)-ethylsulfanyl]-2-methyl-phenoxy}-acetic acid] | ≥ 5.00 | < 5.00 | ≥ 5.00 | –
O=C(O)Cn1ccc2cc(OCCOc3ccc(Cl)cc3-n3nc4ccccc4n3)ccc21 [Compound 1900, {5-[2-(2-Benzotriazol-2-yl-4-chloro-phenoxy)-ethoxy]-indol-1-yl}-acetic acid] | ≥ 5.00 | < 5.00 | ≥ 5.00 | –
O=C(O)Cc1ccc(OCCCOc2ccc(Cl)cc2-n2nc3c(n2)CCCC3)cc1 [Compound 1200, (4-{3-[4-Chloro-2-(4,5,6,7-tetrahydro-benzotriazol-2-yl)-phenoxy]-propoxy}-phenyl)-acetic acid] | ≥ 5.00 | – | ≥ 5.00 | ≥ 5.00
Cc1cccc2nn(-c3cc(Cl)ccc3OCCCOc3ccc(CC(=O)O)cc3)nc12 [Compound 1600, (4-{3-[4-Chloro-2-(4-methyl-benzotriazol-2-yl)-phenoxy]-propoxy}-phenyl)-acetic acid] | ≥ 5.00 | – | ≥ 5.00 | ≥ 5.00
O=C(O)Cc1ccc(OCCCOc2ccc(Cl)cc2C#Cc2ccccn2)cc1 [Compound 1500, {4-[3-(4-Chloro-2-pyridin-2-ylethynyl-phenoxy)-propoxy]-phenyl}-acetic acid] | ≥ 5.00 | < 5.00 | ≥ 5.00 | –
CCCc1cc(CC(=O)O)ccc1OCCCOc1ccc(Cl)cc1-n1nc2ccccc2n1 [Compound 600, {4-[3-(2-Benzotriazol-2-yl-4-chloro-phenoxy)-propoxy]-3-propyl-phenyl}-acetic acid] | ≥ 5.00 | – | ≥ 5.00 | ≥ 5.00
O=C(O)Cn1ccc2cc(OCCCOc3ccc(Cl)cc3-n3nc4ccccc4n3)ccc21 [Compound 1800, {5-[3-(2-Benzotriazol-2-yl-4-chloro-phenoxy)-propoxy]-indol-1-yl}-acetic acid] | ≥ 5.00 | < 5.00 | ≥ 5.00 | –
O=C(O)Cn1ncc2cc(OCCCOc3ccc(Cl)cc3-n3nc4ccccc4n3)ccc21 [Compound 1700, {5-[3-(2-Benzotriazol-2-yl-4-chloro-phenoxy)-propoxy]-indazol-1-yl}-acetic acid] | ≥ 5.00 | – | ≥ 5.00 | < 4.52
COc1cccc(C#Cc2cc(Cl)ccc2OCCCOc2ccc(CC(=O)O)cc2)c1 [Compound 1400, (4-{3-[4-Chloro-2-(3-methoxy-phenylethynyl)-phenoxy]-propoxy}-phenyl)-acetic acid] | ≥ 5.00 | < 5.00 | ≥ 5.00 | –

Continued, values first:

pEC50 [1] | pEC50 [2, 4] | pEC50 [3] | pEC50 [2, 5] | Compound
≥ 5.00 | < 5.00 | ≥ 5.00 | – | O=C(O)Cc1ccc(OCCOc2ccc(Cl)cc2-n2nc3ccccc3n2)cc1 [Compound 800, {4-[2-(2-Benzotriazol-2-yl-4-chloro-phenoxy)-ethoxy]-phenyl}-acetic acid]
≥ 5.00 | < 5.00 | ≥ 5.00 | – | O=C(O)Cc1ccc(OCCCOc2ccc(Cl)cc2C#Cc2ccccc2)cc1 [Compound 1300, {4-[3-(4-Chloro-2-phenylethynyl-phenoxy)-propoxy]-phenyl}-acetic acid]
≥ 5.00 | – | ≥ 5.00 | ≥ 5.00 | O=C(O)Cc1ccc(OCCCOc2ccc(Cl)cc2-n2nc3ccccc3n2)cc1 [Compound 500, {4-[3-(2-Benzotriazol-2-yl-4-chloro-phenoxy)-propoxy]-phenyl}-acetic acid]
≥ 5.00 | – | ≥ 5.00 | < 4.52 | CCCc1cc(CC(=O)O)ccc1OCCOc1ccc(Cl)cc1-n1nc2ccccc2n1 [Compound 900, {4-[2-(2-Benzotriazol-2-yl-4-chloro-phenoxy)-ethoxy]-3-propyl-phenyl}-acetic acid]
≥ 5.00 | – | ≥ 5.00 | ≥ 5.00 | Cc1cc(SCCCOc2ccc(Br)cc2-c2nc3ccccc3o2)ccc1OCC(=O)O [Compound 300, {4-[3-(2-Benzooxazol-2-yl-4-bromo-phenoxy)-propylsulfanyl]-2-methyl-phenoxy}-acetic acid]
